Data reported in patent US20100179093A1, “Neoropeptide-2-Receptor (Y-2R) Agonists” (priority 2008, published 2010).

Assays:
Format in all cases: cell-based
hNPY2R [1] = molecular target: T1, hNPY2R (Homo sapiens, UniProt P49146); assay: cAMP Agonist Assay, HEK293/hNPY2R cells; design: expressed in transfected cells; host or cells: HEK293/hNPY2R (G418 selection)
T1 sequence (P49146 1-381): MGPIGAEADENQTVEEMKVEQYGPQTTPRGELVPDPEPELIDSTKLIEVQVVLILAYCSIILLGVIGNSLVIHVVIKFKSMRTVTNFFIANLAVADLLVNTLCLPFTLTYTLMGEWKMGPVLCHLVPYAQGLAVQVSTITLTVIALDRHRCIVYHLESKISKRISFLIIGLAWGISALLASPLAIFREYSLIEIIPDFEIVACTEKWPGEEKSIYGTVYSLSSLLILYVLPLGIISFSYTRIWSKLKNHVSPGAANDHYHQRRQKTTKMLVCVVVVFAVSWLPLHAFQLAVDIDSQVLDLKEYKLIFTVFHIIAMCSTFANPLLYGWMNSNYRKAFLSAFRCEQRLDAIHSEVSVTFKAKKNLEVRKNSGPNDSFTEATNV
Procedure: On the first day, medium was discarded, and the monolayer cells were washed with 10 mL PBS per flask (T225). […] The flask was gently tapped and the cell suspension was pooled. Each flask was rinsed with 10 mL plating medium and centrifuged at 1000 rpm for 5 min. The suspension was pooled and counted. The suspension was resuspended in plating medium at a density of 2.0×10^5 cells/mL for HEK293/hNPY2R. 50 microliters of cells (HEK293/hNPY2R-10,000 cells/well) were transferred into the 384-well plate using Multi-drop dispenser. The plates were incubated at 37° C. overnight. […] The media and reagents were allowed to come to room temperature. Before the dilutions were prepared, the stock solution of stimulating compound in dimethyl sulphoxide (DMSO, Sigma, cat #D2650) was allowed to warm up to 32 C for 5-10 min. […] The cell medium was tapped off with a gentle inversion of the cell plate on a paper towel. 50 μL of stimulation medium was placed per well (each concentration done in four replicates). The plates were incubated at room temperature for 30 min, and the cells were checked under a microscope for toxicity. After 30 minutes of treatment, the stimulation media was discarded and 50 mL/well of Assay Lysis Buffer (provided in the Tropix kit) was added. The plates were incubated for 45 min@37° C. 20 μL of the lysate was transferred from stimulation plates into the pre-coated antibody plates (384-well) from the Tropix kit. 10 μL of AP conjugate and 20 μL of anti-cAMP antibody was added. The plates were incubated at room temperature while shaking for 1 hour. The plates were then washed 5 times with Wash Buffer, 70 μL per well for each wash. The plates were tapped to dry. 30 μL/well of CSPD/Saphire-II RTU substrate/enhancer solution was added and incubated for 45 min @ RT (shake). Signal for 1 sec/well in a Luminometer.

Y4R = Y4R (Homo sapiens, UniProt P50391); assay: CaFlux Assay (FLIPR), Y4R
hNPY2R [2] = molecular target: T1, hNPY2R; assay: CaFlux Assay (FLIPR), Y2R; design: expressed in transfected cells; host or cells: HEK-293 stably expressing G protein chimera Gaqi9
Y5R = molecular target: T2, Y5R (Homo sapiens, UniProt Q15761); assay: CaFlux Assay (FLIPR), Y5R; conditions: for Emax: read-out: Y5R FLIPR, percentage in parentheses under the EC50;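 on Emax: percent of the maximal response of the positive control agonist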
T2 sequence (Q15761 1-445): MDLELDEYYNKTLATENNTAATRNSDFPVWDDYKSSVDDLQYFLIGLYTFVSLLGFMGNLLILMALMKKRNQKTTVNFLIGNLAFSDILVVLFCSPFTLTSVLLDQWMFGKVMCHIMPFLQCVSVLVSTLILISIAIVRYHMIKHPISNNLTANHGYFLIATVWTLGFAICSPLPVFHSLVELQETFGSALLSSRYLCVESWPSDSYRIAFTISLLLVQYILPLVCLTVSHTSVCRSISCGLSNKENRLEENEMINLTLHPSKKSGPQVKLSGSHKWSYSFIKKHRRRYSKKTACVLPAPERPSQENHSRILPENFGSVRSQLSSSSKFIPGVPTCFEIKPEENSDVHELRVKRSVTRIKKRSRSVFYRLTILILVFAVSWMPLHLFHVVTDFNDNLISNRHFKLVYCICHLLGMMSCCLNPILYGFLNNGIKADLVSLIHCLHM

Y1R = molecular target: T3, Y1R (Homo sapiens, UniProt P25929); assay: CaFlux Assay (FLIPR), Y1R
T3 sequence (P25929 1-384): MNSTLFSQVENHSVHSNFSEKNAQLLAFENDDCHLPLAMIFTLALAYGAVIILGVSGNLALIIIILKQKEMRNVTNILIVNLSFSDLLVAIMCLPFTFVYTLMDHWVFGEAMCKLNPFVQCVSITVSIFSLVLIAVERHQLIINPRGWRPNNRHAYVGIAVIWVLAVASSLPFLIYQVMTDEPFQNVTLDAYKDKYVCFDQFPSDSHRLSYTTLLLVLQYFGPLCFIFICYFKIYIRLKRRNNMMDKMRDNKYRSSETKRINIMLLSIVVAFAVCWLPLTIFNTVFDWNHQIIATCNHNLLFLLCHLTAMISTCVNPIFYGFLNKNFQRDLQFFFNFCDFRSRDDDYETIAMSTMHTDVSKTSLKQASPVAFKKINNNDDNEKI

Y4R, sequence (P50391 whole entry): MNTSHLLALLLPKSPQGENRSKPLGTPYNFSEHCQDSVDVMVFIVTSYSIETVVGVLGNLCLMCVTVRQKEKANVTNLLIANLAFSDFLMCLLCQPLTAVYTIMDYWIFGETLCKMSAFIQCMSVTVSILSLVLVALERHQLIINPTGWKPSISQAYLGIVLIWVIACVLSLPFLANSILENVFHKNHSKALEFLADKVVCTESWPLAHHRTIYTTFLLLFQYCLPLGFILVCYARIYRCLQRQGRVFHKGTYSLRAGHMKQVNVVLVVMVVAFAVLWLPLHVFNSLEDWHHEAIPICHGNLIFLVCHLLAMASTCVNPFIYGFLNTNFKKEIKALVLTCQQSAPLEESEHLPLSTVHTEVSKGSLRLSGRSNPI

Row | SMILES | EC50 (hNPY2R [1]) | EC50 (Y4R) | EC50 (hNPY2R [2]) | EC50 (Y5R) | EC50 (Y1R) | Emax (Y5R)
1 | CCCCCCCCCCCCCCCC(=O)NCCCC[C@H](NC(=O)[C@@H](NC(C)=O)[C@@H](C)CC)C(=O)N1CCN(c2ccc3ncn(CC(=O)N[C@@H](CCCNC(=N)N)C(=O)N[C@@H](Cc4c[nH]cn4)C(=O)N[C@@H](Cc4ccc(O)cc4)C(=O)N[C@@H](CC(C)C)C(=O)N[C@@H](CC(N)=O)C(=O)N[C@@H](Cc4c[nH]c5ccccc45)C(=O)N[C@H](C(=O)N[C@H](C(=O)N[C@@H](CCCNC(=N)N)C(=O)N[C@@H](CCC(N)=O)C(=O)N(C)[C@@H](CCCNC(=N)N)C(=O)N[C@@H](Cc4ccc(O)cc4)C(N)=O)[C@@H](C)O)C(C)C)c(=O)c3c2)CC1 [Example 13] | 1.2 nM | 32200 nM | 1.31 nM | 9380 nM | 29200 nM | 
2 | CC[C@H](C)[C@H](N)C(=O)N[C@@H](CCCCNC(=O)CC[C@H](NC(=O)CC[C@H](NC(=O)CCCCCCCCCCCCCCCBr)C(=O)O)C(=O)O)C(=O)N1CCN(c2ccc3ncn(CC(=O)N[C@@H](CCCNC(=N)N)C(=O)N[C@@H](Cc4c[nH]cn4)C(=O)N[C@@H](Cc4ccc(O)cc4)C(=O)N[C@@H](CC(C)C)C(=O)N[C@@H](CC(N)=O)C(=O)N[C@@H](Cc4c[nH]c5ccccc45)C(=O)N[C@H](C(=O)N[C@H](C(=O)N[C@@H](CCCNC(=N)N)C(=O)N[C@@H](CCC(N)=O)C(=O)N(C)[C@@H](CCCNC(=N)N)C(=O)N[C@@H](Cc4ccc(O)cc4)C(N)=O)[C@@H](C)O)C(C)C)c(=O)c3c2)CC1 [Example 27] | 0.4 nM | > 5000 nM | 0.23 nM | 2540 nM | > 5000 nM | 
3 | CCCCCCCCCCCCCCCC(=O)NCCCCCC(=O)N[C@H](C(=O)N[C@@H](CCCCN)C(=O)N1CCN(c2ccc3ncn(CC(=O)N[C@@H](CCCNC(=N)N)C(=O)N[C@@H](Cc4c[nH]cn4)C(=O)N[C@@H](Cc4ccc(O)cc4)C(=O)N[C@@H](CC(C)C)C(=O)N[C@@H](CC(N)=O)C(=O)N[C@@H](Cc4c[nH]c5ccccc45)C(=O)N[C@H](C(=O)N[C@H](C(=O)N[C@@H](CCCNC(=N)N)C(=O)N[C@@H](CCC(N)=O)C(=O)N[C@@H](CCCNC(=N)N)C(=O)N[C@@H](Cc4ccc(O)cc4)C(N)=O)[C@@H](C)O)C(C)C)c(=O)c3c2)CC1)[C@@H](C)CC [Example 17] | 0.25 nM | 14500 nM | 0.09 nM | 27 nM | > 5000 nM | 
4 | CCCCCCCC(=O)NCCCC[C@H](NC(=O)[C@@H](NC(C)=O)[C@@H](C)CC)C(=O)N1CCN(c2ccc3ncn(CC(=O)N[C@@H](CCCNC(=N)N)C(=O)N[C@@H](Cc4c[nH]cn4)C(=O)N[C@@H](Cc4ccc(O)cc4)C(=O)N[C@@H](CC(C)C)C(=O)N[C@@H](CC(N)=O)C(=O)N[C@@H](Cc4c[nH]c5ccccc45)C(=O)N[C@H](C(=O)N[C@H](C(=O)N[C@@H](CCCNC(=N)N)C(=O)N[C@@H](CCC(N)=O)C(=O)N(C)[C@@H](CCCNC(=N)N)C(=O)N[C@@H](Cc4ccc(O)cc4)C(N)=O)[C@@H](C)O)C(C)C)c(=O)c3c2)CC1 [Example 6] | 1.7 nM | 2470 nM | 1.45 nM | 99900 nM | 5200 nM | 
5 | CCCCCCCCCCCCCCCCCCCC(=O)NCCOCCNC(=O)CCC(=O)NCCCC[C@H](NC(=O)[C@@H](N)[C@@H](C)CC)C(=O)N1CCN(c2ccc3ncn(CC(=O)N[C@@H](CCCNC(=N)N)C(=O)N[C@@H](Cc4c[nH]cn4)C(=O)N[C@@H](Cc4ccc(O)cc4)C(=O)N[C@@H](CC(C)C)C(=O)N[C@@H](CC(N)=O)C(=O)N[C@@H](Cc4c[nH]c5ccccc45)C(=O)N[C@H](C(=O)N[C@H](C(=O)N[C@@H](CCCNC(=N)N)C(=O)N[C@@H](CCC(N)=O)C(=O)N(C)[C@@H](CCCNC(=N)N)C(=O)N[C@@H](Cc4ccc(O)cc4)C(N)=O)[C@@H](C)O)C(C)C)c(=O)c3c2)CC1 [Example 39] | 0.21 nM | > 5000 nM | 0.073 nM | 285 nM | > 5000 nM | 50%
6 | CCCCCCCCCCCCCCCC(=O)N[C@@H](CO)C(=O)N[C@@H](CO)C(=O)NCCCC[C@H](NC(=O)[C@@H](N)[C@@H](C)CC)C(=O)N1CCN(c2ccc3ncn(CC(=O)N[C@@H](CCCNC(=N)N)C(=O)N[C@@H](Cc4c[nH]cn4)C(=O)N[C@@H](Cc4ccc(O)cc4)C(=O)N[C@@H](CC(C)C)C(=O)N[C@@H](CC(N)=O)C(=O)N[C@@H](Cc4c[nH]c5ccccc45)C(=O)N[C@H](C(=O)N[C@H](C(=O)N[C@@H](CCCNC(=N)N)C(=O)N[C@@H](CCC(N)=O)C(=O)N(C)[C@@H](CCCNC(=N)N)C(=O)N[C@@H](Cc4ccc(O)cc4)C(N)=O)[C@@H](C)O)C(C)C)c(=O)c3c2)CC1 [Example 40] | 0.18 nM | > 5000 nM | 0.36 nM | 602 nM | > 5000 nM | 85%
7 | CCCCCCCCCCCCCCCC(=O)NCCOCCOCCOCCOCCC(=O)NCCCC[C@H](NC(=O)[C@@H](N)[C@@H](C)CC)C(=O)N1CCN(c2ccc3ncn(CC(=O)N[C@@H](CCCNC(=N)N)C(=O)N[C@@H](Cc4c[nH]cn4)C(=O)N[C@@H](Cc4ccc(O)cc4)C(=O)N[C@@H](CC(C)C)C(=O)N[C@@H](CC(N)=O)C(=O)N[C@@H](Cc4c[nH]c5ccccc45)C(=O)N[C@H](C(=O)N[C@H](C(=O)N[C@@H](CCCNC(=N)N)C(=O)N[C@@H](CCC(N)=O)C(=O)N(C)[C@@H](CCCNC(=N)N)C(=O)N[C@@H](Cc4ccc(O)cc4)C(N)=O)[C@@H](C)O)C(C)C)c(=O)c3c2)CC1 [Example 32] | 0.19 nM | > 5000 nM | 0.26 nM | 973 nM | > 5000 nM | 28%
8 | CCCCCCCCCCCCCCCC(=O)NCCCC[C@H](NC(=O)[C@@H](N)[C@@H](C)CC)C(=O)N1CCN(c2ccc3ncn(CC(=O)N[C@@H](CCCNC(=N)N)C(=O)N[C@@H](Cc4c[nH]cn4)C(=O)N[C@@H](Cc4ccc(O)cc4)C(=O)N[C@@H](CC(C)C)C(=O)N[C@@H](CC(N)=O)C(=O)N[C@@H](Cc4c[nH]c5ccccc45)C(=O)N[C@H](C(=O)N[C@H](C(=O)N[C@@H](CCCNC(=N)N)C(=O)N[C@@H](CCC(N)=O)C(=O)N(C)[C@@H](CCCNC(=N)N)C(=O)N[C@@H](Cc4ccc(O)cc4)C(N)=O)[C@@H](C)O)C(C)C)c(=O)c3c2)CC1 [Example 14] | 1 nM | > 5000 nM | 0.73 nM | 12700 nM | > 5000 nM | 
9 | CCCCCCCCCCCCCCCCCCCC(=O)NCCOCCOCCOCCOCCC(=O)NCCCC[C@H](NC(=O)[C@@H](N)[C@@H](C)CC)C(=O)N1CCN(c2ccc3ncn(CC(=O)N[C@@H](CCCNC(=N)N)C(=O)N[C@@H](Cc4c[nH]cn4)C(=O)N[C@@H](Cc4ccc(O)cc4)C(=O)N[C@@H](CC(C)C)C(=O)N[C@@H](CC(N)=O)C(=O)N[C@@H](Cc4c[nH]c5ccccc45)C(=O)N[C@H](C(=O)N[C@H](C(=O)N[C@@H](CCCNC(=N)N)C(=O)N[C@@H](CCC(N)=O)C(=O)N(C)[C@@H](CCCNC(=N)N)C(=O)N[C@@H](Cc4ccc(O)cc4)C(N)=O)[C@@H](C)O)C(C)C)c(=O)c3c2)CC1 [Example 33] | 0.13 nM | > 5000 nM | 1.08 nM | 241 nM | > 5000 nM | 53%
10 | CCCCCCCCCCCCCCCC(=O)NCCC(=O)N[C@@H](CCC(=O)O)C(=O)NCCCC[C@H](NC(=O)[C@@H](N)[C@@H](C)CC)C(=O)N1CCN(c2ccc3ncn(CC(=O)N[C@@H](CCCNC(=N)N)C(=O)N[C@@H](Cc4c[nH]cn4)C(=O)N[C@@H](Cc4ccc(O)cc4)C(=O)N[C@@H](CC(C)C)C(=O)N[C@@H](CC(N)=O)C(=O)N[C@@H](Cc4c[nH]c5ccccc45)C(=O)N[C@H](C(=O)N[C@H](C(=O)N[C@@H](CCCNC(=N)N)C(=O)N[C@@H](CCC(N)=O)C(=O)N(C)[C@@H](CCCNC(=N)N)C(=O)N[C@@H](Cc4ccc(O)cc4)C(N)=O)[C@@H](C)O)C(C)C)c(=O)c3c2)CC1 [Example 22] |  |  |  |  |  | 70%
